Assay results from ChEMBL document CHEMBL5143556, “Molecular hybridization used to design and synthesize neo-tanshinlactone derivatives as PD-1/PD-L1 inhibitors” (Bioorg Med Chem, 2022).
The source made the active and inactive calls. The rule behind the calls is not given here.

Legend:
[1] = Cytotoxicity against T cell (unknown origin); assay type: toxicity, cell-based, Homo sapiens; settings: T cells
[2] = system: ZR-75-1; assay: Antiproliferative activity against human ZR-75-1 cells assessed as reduction in […]; assay type: functional, cell-based
[3] = system: SK-BR-3; assay: Antiproliferative activity against human SK-BR-3 cells assessed as reduction in […]; assay type: functional, cell-based
[4] = system: MCF7; assay: Antiproliferative activity against human MCF7 cells assessed as reduction in […]; assay type: functional, cell-based
[5] = system: Jurkat; assay: Induction of anti-CD3/CD28 antibodies-stimulated human Jurkat T cell activation co-cultured with MDA-MB-231 cells assessed as increase IFN-gamma protein expression in CD8+ cells in presence of PMA and ionomycin at 5 uM after 48 hrs by flow cytometric analysis; assay type: functional, cell-based
[6] = system: Jurkat; assay: Cytotoxicity against human Jurkat T cells co-cultured with MDA-MB-231 cells assessed as reduction in cell viability at 50 uM after 48 hrs by CFSE staining based flow cytometric analysis; assay type: toxicity
[7] = system: Jurkat; assay: Induction of anti-CD3/CD28 antibodies-stimulated human Jurkat T cell activation co-cultured with MDA-MB-231 cells assessed as increase TNFalpha protein expression in CD8+ cells at 5 uM in presence of PMA and ionomycin after 48 hrs by flow cytometric analysis; assay type: functional, cell-based
[8] = system: Jurkat; assay: Induction of anti-CD3/CD28 antibodies-stimulated human Jurkat T cell activation co-cultured with MDA-MB-231 cells assessed as increase granzyme B protein expression in CD8+ cells at 5 uM after 48 hrs by flow cytometric analysis; assay type: functional, cell-based
[9] = system: Jurkat; assay: Induction of anti-CD3/CD28 antibodies-stimulated human Jurkat T cell activation co-cultured with MDA-MB-231 cells assessed as increase IFN-gamma protein expression in CD8+ cells at 5 uM after 48 hrs by flow cytometric analysis; assay type: functional, cell-based
[10] = system: Jurkat; assay: Induction of anti-CD3/CD28 antibodies-stimulated human Jurkat T cell activation co-cultured with MDA-MB-231 cells assessed as increase granzyme B protein expression in CD8+ cells at 5 uM in presence of PMA and ionomycin after 48 hrs by flow cytometric analysis; assay type: functional, cell-based
[11] = system: Jurkat; assay: Induction of anti-CD3/CD28 antibodies-stimulated human Jurkat T cell activation co-cultured with MDA-MB-231 cells assessed as increase TNFalpha protein expression in CD8+ cells at 5 uM after 48 hrs by flow cytometric analysis; assay type: functional, cell-based
[12] = system: Jurkat; assay: Induction of cell proliferation in human Jurkat T cells co-cultured with MDA-MB-231 cells assessed as increase in cell viability at < 5 uM after 48 hrs by CFSE staining based flow cytometric analysis; assay type: functional
[13] = system: MC-38; assay: Antitumour activity against mouse MC38 cells implanted in C57BL6 mouse assessed reduction in tumor size at 10 to 25 mg/kg, IG for 16 days; assay type: functional, organism-based; settings: dose 10-25 mg/kg, time 16.0 day
[14] = system: MC-38; assay: Antitumour activity against mouse MC38 cells implanted in C57BL6 mouse assessed reduction in tumor weight at 10 to 25 mg/kg, IG for 16 days; assay type: functional, organism-based; settings: dose 10-25 mg/kg, time 16.0 day
[15] = system: MC-38; assay: Antitumour activity against mouse MC38 cells implanted in C57BL6 mouse assessed reduction in tumor growth at 10 to 25 mg/kg, IG for 16 days by PCNA staining based immunohistochemical analysis; assay type: functional, organism-based; settings: dose 10-25 mg/kg, time 16.0 day
[16] = system: MC-38; assay: Antitumour activity against mouse MC38 cells implanted in C57BL6 mouse assessed increase in CD4-CD8+Tim3+ cells at 10 to 25 mg/kg, IG for 16 days by flow cytometric analysis; assay type: functional, organism-based; settings: dose 10-25 mg/kg, time 16.0 day
[17] = system: MC-38; assay: Antitumour activity against mouse MC38 cells implanted in C57BL6 mouse assessed increase in CD4-CD8+PD-1+ cells at 10 to 25 mg/kg, IG for 16 days by flow cytometric analysis; assay type: functional, organism-based; settings: dose 10-25 mg/kg, time 16.0 day
[18] = system: MC-38; assay: Antitumour activity against mouse MC38 cells implanted in C57BL6 mouse assessed increase in CD4+CD8-Tim3+ cells at 10 to 25 mg/kg, IG for 16 days by flow cytometric analysis; assay type: functional, organism-based; settings: dose 10-25 mg/kg, time 16.0 day
[19] = system: MC-38; assay: Antitumour activity against mouse MC38 cells implanted in C57BL6 mouse assessed reduction in tumor growth at 10 to 25 mg/kg, IG for 16 days by Ki67 staining based immunohistochemical analysis; assay type: functional, organism-based; settings: dose 10-25 mg/kg, time 16.0 day
[20] = system: MC-38; assay: Antitumour activity against mouse MC38 cells implanted in C57BL6 mouse assessed decrease in CD4+CD8-PD1+ cells at 10 to 25 mg/kg, IG for 16 days by flow cytometric analysis; assay type: functional, organism-based; settings: dose 10-25 mg/kg, time 16.0 day
[21] = system: Jurkat; assay: Cytotoxicity against human Jurkat T cells co-cultured with MDA-MB-231 cells assessed as reduction in cell viability at 5 to 10 uM after 48 hrs by CFSE staining based flow cytometric analysis; assay type: toxicity; settings: dose 5-10 µM
[22] = system: MC-38; assay: Antitumour activity against mouse MC38 cells implanted in C57BL6 mouse assessed increase in CD4+CD8-Tim3+ cells at 25 mg/kg, IG for 16 days by flow cytometric analysis; assay type: functional, organism-based; settings: time 16.0 day
[23] = system: MC-38; assay: Antitumour activity against mouse MC38 cells implanted in C57BL6 mouse assessed reduction in tumor weight at 25 mg/kg, IG for 16 days; assay type: functional, organism-based; settings: time 16.0 day
[24] = system: MC-38; assay: Antitumour activity against mouse MC38 cells implanted in C57BL6 mouse assessed increase in CD4+CD8- cells at 25 mg/kg, IG for 16 days by flow cytometric analysis; assay type: functional, organism-based; settings: time 16.0 day
[25] = system: MC-38; assay: Antitumour activity against mouse MC38 cells implanted in C57BL6 mouse assessed reduction in tumor size at 25 mg/kg, IG for 16 days; assay type: functional, organism-based; settings: time 16.0 day

Row | Compound | EC50 [1] | Activity [5] | Activity [6] | Activity [7] | Activity [8] | Activity [9] | Activity [10] | Activity [11] | Activity [12] | other results
1 | Cc1c(COc2cc(OCc3cccc(C#N)c3)c(CN3C[C@@H](O)C[C@H]3C(=O)O)cc2Cl)cccc1-c1ccc2c(c1)OCCO2 | 1.4 nM |  |  |  |  |  |  |  |  | 
2 | CCc1cccc2c1ccc1c3occ(C)c3c(=O)oc21 |  |  |  |  |  |  |  |  |  | EC50 [2]: 0.18 µg/mL; EC50 [3]: 0.1 µg/mL; EC50 [4]: 0.45 µg/mL
3 | O=C(O)[C@@H]1Cc2ccccc2CN1Cc1ccc(OCc2cccc(-c3ccccc3)c2Br)cc1Oc1cc(=O)oc2c1ccc1ccccc12 |  | Active | Toxic | Active | Active | Active | Active | Active |  | 
4 | Cc1c(COc2ccc(CN3Cc4ccccc4CC3C(=O)O)c(Oc3cc(=O)oc4ccccc34)c2)cccc1-c1ccccc1 (racemic) |  |  |  |  |  |  |  |  | Active | 
5 | Cc1c(COc2ccc(CN3Cc4ccccc4C[C@@H]3C(=O)O)c(Oc3cc(=O)oc4c3ccc3ccccc34)c2)cccc1-c1ccccc1 |  | Active | Toxic | Active | Active | Active | Active | Active | Active | Activity [13]: Active; Activity [14]: Active; TGI [15]: Active; Activity [16]: Active; Activity [17]: Active; Activity [18]: Active; TGI [19]: Active; Activity [20]: Active
6 | COc1nc(OCc2cccc(-c3ccccc3)c2C)ccc1CNCCNC(C)=O | 11 nM | Active |  | Active | Active | Active | Active | Active |  | Activity [21]: Non-Toxic; Activity [22]: Active; Activity [23]: Active; Activity [24]: Active; Activity [25]: Active
